In this assay the target is T1, Apaf-1 (Homo sapiens, UniProt O14727).
T1 sequence (O14727 1-1248): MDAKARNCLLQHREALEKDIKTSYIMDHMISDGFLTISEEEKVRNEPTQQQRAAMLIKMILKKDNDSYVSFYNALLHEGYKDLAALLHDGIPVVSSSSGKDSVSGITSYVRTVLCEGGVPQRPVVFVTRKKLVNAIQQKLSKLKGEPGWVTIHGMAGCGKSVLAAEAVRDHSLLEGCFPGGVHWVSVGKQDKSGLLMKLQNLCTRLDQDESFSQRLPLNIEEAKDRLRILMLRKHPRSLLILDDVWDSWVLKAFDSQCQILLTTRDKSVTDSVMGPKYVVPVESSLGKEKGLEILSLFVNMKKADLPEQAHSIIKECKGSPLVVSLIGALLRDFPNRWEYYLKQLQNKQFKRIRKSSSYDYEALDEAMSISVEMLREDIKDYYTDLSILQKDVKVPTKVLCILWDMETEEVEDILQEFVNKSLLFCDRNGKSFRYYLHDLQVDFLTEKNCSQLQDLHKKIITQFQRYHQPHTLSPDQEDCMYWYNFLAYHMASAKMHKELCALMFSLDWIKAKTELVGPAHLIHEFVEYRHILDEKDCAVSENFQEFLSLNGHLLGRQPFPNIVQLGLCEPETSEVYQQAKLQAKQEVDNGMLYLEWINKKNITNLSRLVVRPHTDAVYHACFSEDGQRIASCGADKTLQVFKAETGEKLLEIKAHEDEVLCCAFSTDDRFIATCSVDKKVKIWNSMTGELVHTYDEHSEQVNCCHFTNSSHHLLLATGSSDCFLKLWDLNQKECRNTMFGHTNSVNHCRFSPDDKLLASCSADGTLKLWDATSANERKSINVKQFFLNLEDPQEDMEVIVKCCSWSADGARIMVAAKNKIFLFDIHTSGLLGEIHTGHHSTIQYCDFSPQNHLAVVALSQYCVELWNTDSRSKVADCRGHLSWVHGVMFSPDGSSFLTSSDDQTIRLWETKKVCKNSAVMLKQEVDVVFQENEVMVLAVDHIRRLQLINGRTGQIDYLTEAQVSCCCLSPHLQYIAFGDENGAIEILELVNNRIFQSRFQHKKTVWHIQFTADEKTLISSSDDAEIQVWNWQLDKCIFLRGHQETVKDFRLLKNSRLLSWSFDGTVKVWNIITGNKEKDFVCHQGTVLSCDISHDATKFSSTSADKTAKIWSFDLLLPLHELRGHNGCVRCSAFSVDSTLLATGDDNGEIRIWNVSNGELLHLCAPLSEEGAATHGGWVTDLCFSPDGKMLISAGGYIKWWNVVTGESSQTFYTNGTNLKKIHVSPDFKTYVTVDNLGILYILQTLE
T1 sequence (P06454 2-111 partner): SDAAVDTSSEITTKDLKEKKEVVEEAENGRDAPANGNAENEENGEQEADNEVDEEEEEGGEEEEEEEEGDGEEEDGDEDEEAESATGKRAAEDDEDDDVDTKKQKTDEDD
As to the kind of experiment: ELISA and FLAG-IP of recombinant Apaf-1/ProT interaction blocked by BETT. The class given is biochemical. A general note: In an ELISA, binding on a coated surface is turned into a signal by an enzyme label.

`Sc1nnc(-c2cc3ccccc3o2)n1-c1ccccc1` [BETT, 5-(2-Benzofuryl)-4-phenyl-1,2,4-triazole-3-thiol]: the EC50 (as a rule, the concentration giving half of the maximal effect) is ~50 µM.

The record behind these values is PMC2852139 (Biochemistry, 2010).
